Laboratory results: article PMC6334005, “Ginsenosides Act As Positive Modulators of P2X4 Receptors” (Molecular Pharmacology, 2019)

Assays:
[1] = target: T1, hP2X4 (Homo sapiens, UniProt Q99571); experiment: YOPRO-1 dye uptake, potentiation of ATP response; type: cell-based; set-up: gene P2RX4; full-length, C-terminal Glu-Glu tag, pcDNA3, stably expressed in HEK-293 cells; homotrimer
T1 sequence (Q99571 1-388): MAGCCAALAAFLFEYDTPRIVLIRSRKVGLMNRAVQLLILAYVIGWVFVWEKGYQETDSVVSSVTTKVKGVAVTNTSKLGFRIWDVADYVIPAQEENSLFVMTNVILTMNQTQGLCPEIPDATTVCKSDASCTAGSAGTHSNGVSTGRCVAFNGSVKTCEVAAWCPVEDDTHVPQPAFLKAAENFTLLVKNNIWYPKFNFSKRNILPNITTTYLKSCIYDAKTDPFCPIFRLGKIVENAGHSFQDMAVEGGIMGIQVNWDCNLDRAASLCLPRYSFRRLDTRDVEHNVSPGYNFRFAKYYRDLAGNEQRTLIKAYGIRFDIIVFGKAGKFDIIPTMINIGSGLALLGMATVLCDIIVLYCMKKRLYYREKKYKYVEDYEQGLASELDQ

[2] = target: T1, hP2X4; experiment: cell-based; set-up: gene P2RX4

SMILES | EC50 [1] [µM] | EC50 [2] [µM]
CC(C)=CCC[C@](C)(O[C@@H]1O[C@H](CO)[C@@H](O)[C@H](O)[C@H]1O)[C@H]1CC[C@]2(C)[C@@H]1[C@H](O)C[C@@H]1[C@@]3(C)CC[C@H](O)C(C)(C)[C@@H]3CC[C@]12C [CK] | 8.5 | –
CC(C)=CCC[C@](C)(O[C@@H]1O[C@H](CO)[C@@H](O)[C@H](O)[C@H]1O)[C@H]1CC[C@]2(C)[C@@H]1[C@H](O)C[C@@H]1[C@@]3(C)CC[C@H](O[C@@H]4O[C@H](CO)[C@@H](O)[C@H](O)[C@H]4O[C@@H]4O[C@H](CO)[C@@H](O)[C@H](O)[C@H]4O)C(C)(C)[C@@H]3CC[C@]12C [Rd] | 7.5 | –
CC(C)=CCC[C@](C)(O[C@@H]1O[C@H](CO[C@@H]2O[C@H](CO)[C@@H](O)[C@H](O)[C@H]2O)[C@@H](O)[C@H](O)[C@H]1O)[C@H]1CC[C@]2(C)[C@@H]1[C@H](O)C[C@@H]1[C@@]3(C)CC[C@H](O[C@@H]4O[C@H](CO)[C@@H](O)[C@H](O)[C@H]4O[C@@H]4O[C@H](CO)[C@@H](O)[C@H](O)[C@H]4O)C(C)(C)[C@@H]3CC[C@]12C [Rb1] | 10.5 | –
Nc1ncnc2c1ncn2[C@@H]1O[C@H](COP(=O)(O)OP(=O)(O)OP(=O)(O)O)[C@@H](O)[C@H]1O [ATP] | – | 1.92
